Source: the supplement of paper PMC6470124

Assays:
[1] = LC retention time (Atlantis T3, 5-95% MeOH gradient, 0.1% formic acid); higher = more retained / less polar
Summary of the method: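 Retention times were recorded for reference standards on a polar reversed-phase C18 column. The standards were of purity ≥ 95%, and the Atlantis T3 column (3 × 150 mm, 3 μm) was run at 0.3 mL/min with a gradient from 5 to 95% methanol over 17.5 min, both water and methanol containing 0.1% formic acid. Detection used high-resolution tandem mass spectrometry on a QExactive Plus, with positive and negative electrospray in separate runs, and peaks were integrated in TraceFinder (5 ppm tolerance, at least three points per peak) before being checked by hand.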

[2] = absolute recovery over vacuum-assisted evaporative concentration; higher = better recovery; conditions: enrichment method: VEC
Summary of the method: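 Water samples (influent 6 mL, effluent 15 mL, surface and nanopure water 60 mL) were spiked with standards before concentration, after concentration or not at all, at 200 ng/L (nanopure/surface) or 1000 ng/L (wastewater), with class- and compound-specific adjustments. They were evaporated at 55 °C and 20 mbar to about 0.3 mL, brought to 0.4 mL and centrifuged. Internal standards were added afterwards and samples were analysed by LC-HRMS/MS. Absolute recovery was (response ratio pre − unspiked)/(post − unspiked) × 100, using averages of ≥ 2 replicates.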

[3] = absolute recovery over mixed-bed multilayer solid-phase extraction; higher = better recovery; conditions: enrichment method: SPE
Summary of the method: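 Wastewater (100–250 mL, pH 6.5, glass-fibre filtered) and unfiltered nanopure water (1000 mL) were extracted on a three-layer mixed-bed cartridge, with standards spiked before extraction, after it, or not at all at 1000 ng/L and 200 ng/L respectively, apart from some classes. Internal standards were then added for liquid chromatography with high-resolution tandem mass spectrometry in both ionisation modes. Absolute recovery compares background-corrected response ratios of pre- and post-spiked samples across at least two replicates.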

Structure (SMILES)	LC retention time [1] [min]	absolute recovery ([2]; wastewater effluent) [%]	absolute recovery ([2]; wastewater influent) [%]	absolute recovery ([3]; nanopure water) [%]	absolute recovery ([3]; surface water) [%]	absolute recovery ([3]; wastewater effluent) [%]	absolute recovery ([3]; wastewater influent) [%]
COC(=O)Nc1nc2ccccc2[nH]1 [Carbendazim]	10.8	105	103	96.1	94.3	93.2	94.1
CCNC(=O)C(C)OC(=O)Nc1ccccc1 (centres undefined) [Carbetamid]	16.5	118	101	94.2	100	94.9	88.7
CNC(=O)Oc1cccc2c1OC(C)(C)C2 [Carbofuran]	17	83.9	96.7	91.7	91.3	94.7	93.5
CCCC(C)(COC(N)=O)COC(=O)NC(C)C (centres undefined) [Carisoprodol]	18.1	104	102	99.3	97.9	93.1	92.4
CC([NH3+])C(O)c1ccccc1 (centres undefined) [Cathine]	9.27	104	96.1	75.1	70.2	68.1	77.6
CCOP(=O)(OCC)OC(=CCl)c1ccc(Cl)cc1Cl [Chlorfenvinphos]	20.9	112	104	85.1	86.4	94.3	86.9
Nc1cnn(-c2ccccc2)c(=O)c1Cl [Chloridazon]	14.7	104	104	97.1	98.1	–	96.1
Cc1ccc(NC(=O)N(C)C)cc1Cl [Chlortoluron]	18.2	107	102	98	101	93	94.8
CC1(C)CON(Cc2ccccc2Cl)C1=O [Clomazon]	19	80.3	78	–	92.1	82.7	87.1
C[NH+]=C([N-][N+](=O)[O-])NCc1cnc(Cl)s1 [Clothianidin]	13.8	104	106	–	95.6	–	94.1
COC(=O)C1C(OC(=O)c2ccccc2)CC2CCC1[NH+]2C (centres undefined) [Cocaine]	12.2	71.1	62.2	97.2	96.4	93.8	94.5
COc1ccc2c3c1OC1C(O)C=CC4C(C2)[NH+](C)CCC341 (centres undefined) [Codein]	9.16	104	102	90.2	92.6	91.7	93
Cc1ccc(-c2c(Cl)nc(C#N)n2S(=O)(=O)N(C)C)cc1 [Cyazofamid]	20.3	99.5	104	66.4	64.6	58	63.2
O=P1(N(CCCl)CCCl)NCCCO1 (centres undefined) [Cyclophosphamid]	16.1	104	100	98.1	96.4	93.9	94.5
O=C(Cc1ccccc1)NC(=NOCC1CC1)c1c(C(F)(F)F)ccc(F)c1F [Cyflufenamid]	20.9	95.4	117	91.9	106	106	84.3
CCNC(=O)NC(=O)C(C#N)=NOC [Cymoxanil]	15.2	53.4	69.8	98.4	83.5	87.9	115
CC(C1CC1)C(O)(Cn1cncn1)c1ccc(Cl)cc1 (centres undefined) [Cyproconazol]	20.1	92.9	95.8	99.4	88.2	87.6	93.5
Cc1cc(C2CC2)nc(Nc2ccccc2)n1 [Cyprodinil]	19.8	86.9	88.2	100	93.8	92.5	89.9
Nc1nc(N)[nH+]c(NC2CC2)n1 [Cyromazin]	7.27	101	104	83.7	–	88.1	91.5
COc1ccc2c(c1)C13CCCCC1C(C2)[NH+](C)CC3 (centres undefined) [Dextromethorphan]	14.5	102	107	86.8	94.5	93.4	77.6
CN1C(=O)CN=C(c2ccccc2)c2cc(Cl)ccc21 [Diazepam]	19.5	105	99.2	97.6	94.9	93.6	95.7
CCOP(=S)(OCC)Oc1cc(C)nc(C(C)C)n1 [Diazinon]	21.1	27.1	18.9	77.6	86.9	80.5	82.8

The remaining lines, values ahead:

LC retention time [1] [min]	absolute recovery ([2]; wastewater effluent) [%]	absolute recovery ([2]; wastewater influent) [%]	absolute recovery ([3]; nanopure water) [%]	absolute recovery ([3]; surface water) [%]	absolute recovery ([3]; wastewater effluent) [%]	absolute recovery ([3]; wastewater influent) [%]	Structure (SMILES)
13	103	103	86.4	84.3	90.1	84.6	CCN(CC)C(=O)Nc1ccc(OCC(O)C[NH2+]C(C)(C)C)c(C(C)=O)c1 (centres undefined) [Celiprolol]
17.4	107	100	97.8	96.3	95.8	92.2	O=C([O-])COCC[NH+]1CCN(C(c2ccccc2)c2ccc(Cl)cc2)CC1 (centres undefined) [Cetirizin]
7.56	102	98.3	58.5	67.9	70.2	72.3	Nc1cn[nH+]c([O-])c1Cl [Chloridazon-desphenyl]
10.2	99.2	104	91.5	102	97	101	Cn1ncc(N)c(Cl)c1=O [Chloridazon-methyl-desphenyl]
14.2	98.1	104	94.1	–	96.5	–	NS(=O)(=O)c1cc(C2(O)NC(=O)c3ccccc32)ccc1Cl (centres undefined) [Chlorthalidon]
13.6	103	80.5	47.7	13.1	19.5	37	CC1(C)CC1C(=O)NC(=CCCCCSCC([NH3+])C(=O)[O-])C(=O)[O-] (centres undefined) [Cilastatin]
11.7	105	–	77.2	73.9	72.6	73.8	O=C([O-])c1cn(C2CC2)c2cc(N3CC[NH2+]CC3)c(F)cc2c1=O [Ciprofloxacin]
14.5	104	100	94.1	96.1	92.4	93.9	C[NH+](C)CCCC1(c2ccc(F)cc2)OCc2cc(C#N)ccc21 (centres undefined) [Citalopram]
17.3	103	95.9	91.1	85.3	96.6	93.9	CCC1OC(=O)C(C)C(OC2CC(C)(OC)C(O)C(C)O2)C(C)C(OC2OC(C)CC([N+](C)(C)[O-])C2O)C(C)(OC)CC(C)C(=O)C(C)C(O)C1(C)O (centres undefined) [Clarithromycin-N-Oxide]
16.9	100	105	89.7	98.5	91	85.1	CCC1OC(=O)C(C)C(OC2CC(C)(OC)C(O)C(C)O2)C(C)C(OC2OC(C)CC([NH+](C)C)C2O)C(C)(OC)CC(C)C(=O)C(C)C(O)C1(C)O (centres undefined) [Clarithromycin]
16.5	106	101	98.6	96.1	91.7	90.1	CC(C)(C)C(=O)C(Oc1ccc(Cl)cc1)n1ccnc1 (centres undefined) [Climbazol]
14.6	100	73.2	90.1	94.8	90	78.7	CCCC1CC(C(=O)NC(C(C)Cl)C2OC(SC)C(O)C(O)C2O)[NH+](C)C1 (centres undefined) [Clindamycin]
19.3	105	103	96.4	94.1	93.9	92.9	CC(C)(Oc1ccc(Cl)cc1)C(=O)[O-] [Clofibric-acid]
14.8	103	102	93.2	94	91.1	92.8	O=C([O-])C(c1ccccc1Cl)[NH+]1CCc2sccc2C1 (centres undefined) [Clopidogrel-Carboxylic-Acid]
22.4	111	103	56.8	67.2	70.9	–	CCCCCC(C)OC(=O)COc1ccc(Cl)c2cccnc12 (centres undefined) [Cloquintocet-mexyl]
16.6	111	110	93.4	90.3	85.9	90.1	Clc1ccccc1C(c1ccccc1)(c1ccccc1)n1ccnc1 [Clotrimazol]

LC retention time [1] [min]	absolute recovery ([2]; wastewater effluent) [%]	absolute recovery ([2]; wastewater influent) [%]	absolute recovery ([3]; nanopure water) [%]	absolute recovery ([3]; surface water) [%]	absolute recovery ([3]; wastewater effluent) [%]	absolute recovery ([3]; wastewater influent) [%]	Structure (SMILES)
12.5	99.7	–	96.4	–	94.5	–	Cn1c(=O)c2c(ncn2C)n(C)c1=O [Coffein]
19	111	55.6	87.8	71.9	71.8	89.1	CC12CCC(=O)C=C1CCC1C2C(O)CC2(C)C(C(=O)CO)CCC12 (centres undefined) [Corticosteron]
17.5	99.8	54.6	74.9	75.6	74.8	95.2	CC12CCC(=O)C=C1CCC1C2C(=O)CC2(C)C1CCC2(O)C(=O)CO (centres undefined) [Cortison]
6.11	100	–	109	135	112	–	CN1C(=O)CCC1c1cccnc1 (centres undefined) [Cotinine]
19.3	59.5	70.2	78.6	70.5	75.3	91.5	CC=CC(=O)N(CC)c1ccccc1C [Crotamiton]
15.9	97.5	94.6	106	94.6	86.1	121	CC=CC(=O)N(CC)C(CC)C(=O)N(C)C (centres undefined) [Crotethamide]
14.3	104	–	95.8	–	29	–	O=S(=O)([O-])NC1CCCCC1 [Cyclamat]
22.3	87.3	76.6	73.9	78.4	76.3	92.2	CCCC(NOCC)=C1C(=O)CC(C2CCCSC2)CC1=O (centres undefined) [Cycloxydim]
18.8	92.5	106	91.4	91.2	89.2	94.2	CN(C)C(=O)NC1CCCCCCC1 [Cycluron]
15.6	89.3	–	103	112	104	64.6	Nc1ccn(C2OC(CO)C(O)C2O)c(=O)n1 (centres undefined) [Cytarabin]
14	101	100	89.5	84.5	86.9	81.5	C[NH2+]CCCC(C#N)(c1ccc(OC)c(OC)c1)C(C)C (centres undefined) [D617]
15.9	100	95.6	100	95.5	89.9	136	CN(C)S(=O)(=O)Nc1ccccc1 [DMSA (=N-N-Dimethylaminosulfanilid)]
12.2	102	106	68.6	71.5	70.5	77.3	C#CC[N+](C)([O-])C(C)Cc1ccccc1 (centres undefined) [Deprenyl-N-Oxide]
18.7	106	105	92.3	86.2	91.2	94	CC1CC2C3CCC4=CC(=O)C=CC4(C)C3(F)C(O)CC2(C)C1(O)C(=O)CO (centres undefined) [Dexamethason]
10	100	102	69	74.5	73.8	65.1	CC(=O)Nc1c(I)c(NC(C)=O)c(I)c(C(=O)[O-])c1I [Diatrizoate (=Amidotrizoic-acid)]
16.2	92	136	99.8	81.6	93	–	CCCCOc1cc(C(=O)NCC[NH+](CC)CC)c2ccccc2n1 [Dibucaine]
